The text below walks through data of PubChem BioAssay (NCI).

Values joined by “and” are separate entries in the source; they are usually repeats but may differ in a detail not shown here. Equal values may be shown once.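 Grown in 96-well plates, cells were treated for 48 hours with each compound at five concentrations. Insufficient inhibition: endpoint recorded as highest concentration tested. At the GI50, growth is halved. TGI is the concentration that stops growth completely.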 A value given as a limit tells only on which side of the number the result lay.

Some test systems named below: ACHN renal; BT-549 breast; CCRF-CEM leukemia; HOP-92 NSCLC; OVCAR-3 ovarian; PC-3 prostate; RXF 393 renal; SF-539 CNS; TK-10 renal; UACC-257 melanoma.
What all share (assay): growth of human tumour cells (NCI), 48 h

As to `Cc1ccc(C(NC(=O)c2ccccc2)c2ccc3cccnc3c2O)cc1` (centres undefined), the GI50 was 0.285 µM with ACHN renal; 0.524 µM in the assay with BT-549 breast; 0.0783 µM in the assay on CCRF-CEM leukemia; 0.145 µM with HOP-92 NSCLC; 0.351 µM with OVCAR-3 ovarian; 0.354 µM with PC-3 prostate. In addition, the GI50 with RXF 393 renal is 0.252 µM; in the assay with SF-539 CNS, 0.318 µM; in the assay with TK-10 renal, 0.413 µM; in the assay on UACC-257 melanoma it was 0.293 µM. The TGI in the assay with ACHN renal is 15.4 µM; in the assay on BT-549 breast it was more than 40.6 µM; in the assay on HOP-92 NSCLC it was 11.7 µM; with OVCAR-3 ovarian, 18.2 µM; in the assay on PC-3 prostate, 26.3 µM; in the assay on RXF 393 renal it was 1.58 µM. Besides, the TGI with SF-539 CNS worked out at 1.91 µM; in the assay on TK-10 renal, 24.1 µM; with UACC-257 melanoma it was 2.58 µM.
As to `CN(Cc1cccc(F)c1)c1ccc(CO)c(Cl)c1`, the GI50 in the assay with ACHN renal was 37.3 µM; in the assay on BT-549 breast it was 17.9 µM; with CCRF-CEM leukemia it was 31.1 µM; in the assay on HOP-92 NSCLC, 3.37 µM; in the assay with OVCAR-3 ovarian, 3.08 µM; in the assay with PC-3 prostate it was 23.7 µM. Further, the GI50 is 8.72 µM with RXF 393 renal, 33.2 µM in the assay on SF-539 CNS, 0.186 µM in the assay on TK-10 renal and 0.304 µM in the assay on UACC-257 melanoma. Moreover, the TGI in the assay on ACHN renal is more than 100 µM; with BT-549 breast, 60.9 µM; with CCRF-CEM leukemia, more than 100 µM; in the assay on HOP-92 NSCLC, 28.1 µM; with OVCAR-3 ovarian, 15 µM; in the assay with PC-3 prostate it was 98.8 µM. The TGI with RXF 393 renal is 41.7 µM; in the assay on SF-539 CNS, more than 100 µM; in the assay with TK-10 renal, 0.851 µM; in the assay on UACC-257 melanoma, 1.33 µM.
Consider `CC1=C(/C=C/C(C)=C/C=C/C(C)=C/C=N/NC(=S)NC(=S)N/N=C/C=C(C)/C=C/C=C(C)/C=C/C2=C(C)CCCC2(C)C)C(C)(C)CCC1`, for which the GI50 in the assay on ACHN renal was 5.14 µM and 2.3 µM; in the assay on BT-549 breast, 4.85 µM and 1.69 µM; with CCRF-CEM leukemia it was 1.71 µM and 0.686 µM; with HOP-92 NSCLC it was 5.82 µM and 2.33 µM; in the assay on OVCAR-3 ovarian, 1.47 µM and 0.802 µM; in the assay on PC-3 prostate, 3.52 µM and 1.75 µM. Besides, the GI50 in the assay on RXF 393 renal was 0.935 µM and 0.847 µM; in the assay with SF-539 CNS it was 1.13 µM and 0.994 µM; with TK-10 renal, 8.6 µM and 2.2 µM; with UACC-257 melanoma, 5.49 µM and 3.64 µM. Besides, the TGI in the assay with ACHN renal was 11.4 µM and 7.9 µM; in the assay with BT-549 breast, 11.5 µM and 4.77 µM; in the assay with CCRF-CEM leukemia it was 25.8 µM and 4.45 µM; in the assay with HOP-92 NSCLC, 13.4 µM and 6.76 µM; with OVCAR-3 ovarian, 4.92 µM and 1.53 µM; in the assay on PC-3 prostate, 12.7 µM and 7.23 µM. Moreover, the TGI is 1.87 µM and 1.58 µM with RXF 393 renal; 2.85 µM and 2.03 µM in the assay on SF-539 CNS; 16.1 µM and 7.54 µM in the assay with TK-10 renal; 12 µM and 9.82 µM in the assay on UACC-257 melanoma.
Turning to `COC1=C(C)C(=O)c2c(c(CCCl)c3n2CCC3O)C1=O` (centres undefined), the GI50 is 0.327 µM in the assay with ACHN renal; 0.247 µM in the assay on BT-549 breast; 4.6 µM in the assay with CCRF-CEM leukemia; 6.21 µM with HOP-92 NSCLC; 2.19 µM in the assay on OVCAR-3 ovarian; 1.42 µM in the assay on PC-3 prostate. For the same compound, the GI50 in the assay with RXF 393 renal was 0.226 µM; in the assay on SF-539 CNS it was 0.302 µM; with TK-10 renal, 0.296 µM; in the assay with UACC-257 melanoma, 0.839 µM. Besides, the TGI with ACHN renal is 6.83 µM; in the assay with BT-549 breast, 1.09 µM; in the assay with CCRF-CEM leukemia it was more than 72.2 µM; in the assay with HOP-92 NSCLC, 24.7 µM; with OVCAR-3 ovarian, 6.72 µM; in the assay with PC-3 prostate, 10.8 µM. The TGI was 0.597 µM in the assay with RXF 393 renal, 1.16 µM in the assay on SF-539 CNS, 0.763 µM in the assay on TK-10 renal and 3.45 µM with UACC-257 melanoma.
As for `Cc1cc(S(=O)(=O)/N=C/N(C)C)c(SC(=O)c2ccc(Cl)cc2)cc1Cl`, the GI50 is 22.7 µM with ACHN renal; 18.7 µM with BT-549 breast; 32.4 µM with CCRF-CEM leukemia; 28.9 µM with HOP-92 NSCLC; 33.3 µM with OVCAR-3 ovarian; 27.6 µM in the assay with PC-3 prostate. In addition, the GI50 with RXF 393 renal was 11.5 µM; with SF-539 CNS it was 26.7 µM; in the assay on TK-10 renal, 28.2 µM; with UACC-257 melanoma, more than 100 µM. For the same compound, the TGI was 47.1 µM with ACHN renal; 50.4 µM in the assay with BT-549 breast; more than 100 µM in the assay with CCRF-CEM leukemia; more than 100 µM in the assay with HOP-92 NSCLC; 91.1 µM in the assay on OVCAR-3 ovarian; 90.8 µM in the assay on PC-3 prostate. The TGI was 35.7 µM with RXF 393 renal, 52.1 µM with SF-539 CNS, 80.7 µM in the assay on TK-10 renal and more than 100 µM in the assay on UACC-257 melanoma.
On to `CCN(Cc1ccc(F)cc1)c1ccc(CO)c(C)c1`, for which the GI50 is 12.5 µM in the assay on ACHN renal; 5.15 µM with BT-549 breast; 19.7 µM in the assay on CCRF-CEM leukemia; 8.45 µM with HOP-92 NSCLC; 11.1 µM with OVCAR-3 ovarian; 11.6 µM with PC-3 prostate. The GI50 in the assay with RXF 393 renal is 8.47 µM; with SF-539 CNS, 15 µM; in the assay with TK-10 renal, 0.884 µM; in the assay with UACC-257 melanoma, 2.92 µM. For the same compound, the TGI in the assay on ACHN renal amounted to 39.4 µM; in the assay on BT-549 breast it was 24.5 µM; in the assay on CCRF-CEM leukemia, 59.2 µM; in the assay with HOP-92 NSCLC, 27 µM; in the assay on OVCAR-3 ovarian, 24.1 µM; in the assay with PC-3 prostate it was 32.3 µM. Moreover, the TGI with RXF 393 renal stood at 23.3 µM; in the assay with SF-539 CNS, 29.8 µM; with TK-10 renal, 4.2 µM; in the assay on UACC-257 melanoma, 15 µM.
Turning to `O=C(O)c1cn(C2CC2)c2cc(N3CCN(C(=O)Nc4nc(-c5ccccc5)cs4)CC3)c(F)cc2c1=O`, the GI50 with ACHN renal is 0.894 µM; with BT-549 breast, 0.473 µM; in the assay on CCRF-CEM leukemia, 0.752 µM; in the assay with HOP-92 NSCLC, 1.13 µM; in the assay on OVCAR-3 ovarian, 0.582 µM; with PC-3 prostate, 1.88 µM. The GI50 in the assay with RXF 393 renal is 1.53 µM; in the assay on SF-539 CNS, 0.634 µM; with TK-10 renal it was 3.93 µM; in the assay with UACC-257 melanoma it was 2.37 µM. Besides, the TGI is 7.54 µM in the assay on ACHN renal; 10.4 µM with BT-549 breast; more than 100 µM in the assay with CCRF-CEM leukemia; 5.99 µM with HOP-92 NSCLC; 16.5 µM in the assay on OVCAR-3 ovarian; more than 100 µM in the assay on PC-3 prostate. Further, the TGI in the assay with RXF 393 renal was 26.3 µM; in the assay with SF-539 CNS, more than 100 µM; with TK-10 renal, 35.1 µM; with UACC-257 melanoma, 7.58 µM.
For `CC(C)N1CCN(Cc2ccc3c(NNC(=O)c4ccccc4)nc4cc(F)ccc4n23)CC1`, the GI50 in the assay on ACHN renal is 0.0902 µM; with BT-549 breast, 0.629 µM; with CCRF-CEM leukemia it was 0.146 µM; with HOP-92 NSCLC, 0.678 µM; in the assay on OVCAR-3 ovarian, 0.289 µM; with PC-3 prostate it was 0.402 µM. Moreover, the GI50 in the assay with RXF 393 renal is 0.792 µM; in the assay on SF-539 CNS it was 0.403 µM; with TK-10 renal, 0.216 µM; in the assay on UACC-257 melanoma, 0.81 µM. The TGI stood at 12 µM in the assay with ACHN renal; 12.1 µM in the assay on BT-549 breast; 4.09 µM with CCRF-CEM leukemia; 15.3 µM with HOP-92 NSCLC; 6.79 µM in the assay on OVCAR-3 ovarian; 12.7 µM in the assay on PC-3 prostate. Besides, the TGI in the assay with RXF 393 renal was 8.87 µM; in the assay with SF-539 CNS, 1.82 µM; with TK-10 renal it was 23.9 µM; in the assay with UACC-257 melanoma, 11.9 µM.
Consider `COC(=O)C1OC2(CCCC3CC32)O[C@H]1C(=O)OC` (some centres undefined), for which the TGI with ACHN renal, in the assay on BT-549 breast, with CCRF-CEM leukemia, in the assay on HOP-92 NSCLC, with OVCAR-3 ovarian and with PC-3 prostate was more than 100 µM in each case. Further, the TGI in the assay on RXF 393 renal, in the assay on SF-539 CNS, with TK-10 renal and in the assay on UACC-257 melanoma was more than 100 µM in each case.
Turning to `CCN1C(=O)CCCc2c1ccc(Nc1ncc(Cl)c(NC3[C@@H](C(N)=O)[C@@H]4C=C[C@H]3C4)n1)c2OC` (some centres undefined), the GI50 in the assay on ACHN renal is 2.07 µM; in the assay with BT-549 breast, 3.61 µM; with CCRF-CEM leukemia, 0.607 µM; in the assay with HOP-92 NSCLC, 0.276 µM; in the assay on OVCAR-3 ovarian it was 2.14 µM; with PC-3 prostate, 1.49 µM. Besides, the GI50 with RXF 393 renal was 1.22 µM; in the assay with SF-539 CNS, 1.23 µM; in the assay with TK-10 renal, 0.897 µM; with UACC-257 melanoma, 0.839 µM. For the same compound, the TGI in the assay with ACHN renal is more than 30.2 µM; in the assay on BT-549 breast, 17.4 µM; in the assay with CCRF-CEM leukemia, 17.9 µM; in the assay on HOP-92 NSCLC it was 2.26 µM; in the assay with OVCAR-3 ovarian it was 10.6 µM; with PC-3 prostate, 18 µM. For the same compound, the TGI in the assay on RXF 393 renal was 3.38 µM; with SF-539 CNS, 8.94 µM; in the assay with TK-10 renal it was 4.38 µM; in the assay with UACC-257 melanoma it was 4.34 µM.
As for `COc1cc2c(cc1OC)C(Sc1ccc(SC)cc1)c1c(nc(N)c(C#N)c1N)O2` (centres undefined), the GI50 in the assay on ACHN renal was 1.69 µM; in the assay with BT-549 breast it was 1.38 µM; with CCRF-CEM leukemia, 0.571 µM; with HOP-92 NSCLC, 1.96 µM; in the assay with OVCAR-3 ovarian it was 1.62 µM; in the assay on PC-3 prostate, 1.63 µM. The GI50 with RXF 393 renal was 1.25 µM; in the assay with SF-539 CNS it was 1.55 µM; in the assay on TK-10 renal it was 1.6 µM; in the assay with UACC-257 melanoma it was 2.07 µM. Also, the TGI stood at 3.06 µM in the assay on ACHN renal; 2.67 µM with BT-549 breast; 4.28 µM in the assay on CCRF-CEM leukemia; 3.86 µM in the assay with HOP-92 NSCLC; 3.06 µM with OVCAR-3 ovarian; 3.06 µM in the assay on PC-3 prostate. Besides, the TGI with RXF 393 renal amounted to 2.52 µM; in the assay on SF-539 CNS, 2.88 µM; with TK-10 renal, 2.95 µM; in the assay with UACC-257 melanoma, 3.51 µM.
